Assay results: PubChem BioAssay AID1259407 (Chemical Carcinogenesis Research Information System (CCRIS), 2018)
The source made the active and inactive calls. No rule for the calls is given here.

System: CCRIS mutagenicity, Ames/micronucleus/aberration tests
Assay: CCRIS mutagenicity studies
[1] = Test System: AMES SALMONELLA TYPHIMURIUM, Strain/Indicator: TA98, Metabolic Activation: NONE, Method: STANDARD PLATE
[2] = Test System: AMES SALMONELLA TYPHIMURIUM, Strain/Indicator: TA100, Metabolic Activation: NONE, Method: STANDARD PLATE
[3] = Test System: AMES SALMONELLA TYPHIMURIUM, Strain/Indicator: TA100, Metabolic Activation: RAT, LIVER, S-9, AROCLOR 1254, Method: STANDARD PLATE
[4] = Test System: AMES SALMONELLA TYPHIMURIUM, Strain/Indicator: TA1535, Metabolic Activation: NONE, Method: STANDARD PLATE
[5] = Test System: AMES SALMONELLA TYPHIMURIUM, Strain/Indicator: TA1535, Metabolic Activation: RAT, LIVER, S-9, AROCLOR 1254, Method: STANDARD PLATE
[6] = Test System: AMES SALMONELLA TYPHIMURIUM, Strain/Indicator: TA1537, Metabolic Activation: NONE, Method: STANDARD PLATE
[7] = Test System: AMES SALMONELLA TYPHIMURIUM, Strain/Indicator: TA1537, Metabolic Activation: RAT, LIVER, S-9, AROCLOR 1254, Method: STANDARD PLATE
[8] = Test System: AMES SALMONELLA TYPHIMURIUM, Strain/Indicator: TA1538, Metabolic Activation: NONE, Method: STANDARD PLATE
[9] = Test System: AMES SALMONELLA TYPHIMURIUM, Strain/Indicator: TA100, Metabolic Activation: NONE, Method: PREINCUBATION

`C/C=C\c1ccc(OC)cc1OC` was tested, and the mutagenic call (Test System: AMES SALMONELLA TYPHIMURIUM, Strain/Indicator: TA97, Metabolic Activation: NONE, Method: STANDARD PLATE) was “inactive; negative”, the mutagenic call (Test System: AMES SALMONELLA TYPHIMURIUM, Strain/Indicator: TA97, Metabolic Activation: RAT, LIVER, S-9, AROCLOR 1254, Method: STANDARD PLATE) was “inactive; negative” and the mutagenic call [1] was “inactive; negative”. For the same compound, the mutagenic call (Test System: AMES SALMONELLA TYPHIMURIUM, Strain/Indicator: TA98, Metabolic Activation: RAT, LIVER, S-9, AROCLOR 1254, Method: STANDARD PLATE) was “inactive; negative”, the mutagenic call [2] was “inactive; negative” and the mutagenic call [3] was “inactive; negative”. For the same compound, the mutagenic call [4] was “inactive; negative”, the mutagenic call [5] was “inactive; negative” and the mutagenic call [6] was “inactive; negative”. For the same compound, the mutagenic call [7] was “inactive; negative”, the mutagenic call [8] was “inactive; negative” and the mutagenic call (Test System: AMES SALMONELLA TYPHIMURIUM, Strain/Indicator: TA1538, Metabolic Activation: RAT, LIVER, S-9, AROCLOR 1254, Method: STANDARD PLATE) was “inactive; negative”.

With `CCN(CC)c1ccc(N=Nc2sc(C=O)c(Cl)c2C#N)c(NC(=O)COC)c1` the mutagenic call (End Point: IN VITRO CHROMOSOMAL ABERRATIONS, Test System: CHL CELLS, Metabolic Activation: RAT, LIVER, S-9, SODIUM PHENOBARBITAL AND 5,6-BENZOFLAVONE) was “inactive; negative; precipitation occurred at all doses”.

In the case of `O=c1oc2ccccc2c(O)c1C1CCCc2ccccc21` (stereo unspecified), the mutagenic call (Test System: AMES SALMONELLA TYPHIMURIUM, Strain/Indicator: TA97, Metabolic Activation: NONE) is reported as “inactive; negative”, the mutagenic call (Test System: AMES SALMONELLA TYPHIMURIUM, Strain/Indicator: TA97, Metabolic Activation: S-9) is reported as “inactive; negative” and the mutagenic call (Test System: AMES SALMONELLA TYPHIMURIUM, Strain/Indicator: TA98, Metabolic Activation: NONE) is reported as “inactive; negative”. For the same compound, the mutagenic call (Test System: AMES SALMONELLA TYPHIMURIUM, Strain/Indicator: TA98, Metabolic Activation: S-9) was “inactive; negative”, the mutagenic call (Test System: AMES SALMONELLA TYPHIMURIUM, Strain/Indicator: TA100, Metabolic Activation: NONE) was “inactive; negative” and the mutagenic call (Test System: AMES SALMONELLA TYPHIMURIUM, Strain/Indicator: TA100, Metabolic Activation: S-9) was “inactive; negative”. For the same compound, the mutagenic call (Test System: AMES SALMONELLA TYPHIMURIUM, Strain/Indicator: TA102, Metabolic Activation: NONE) was “inactive; negative” and the mutagenic call (Test System: AMES SALMONELLA TYPHIMURIUM, Strain/Indicator: TA102, Metabolic Activation: S-9) was “inactive; negative”.

`O=C1c2cccc(S(=O)(=O)O)c2C(=O)c2cccc([N+](=O)[O-])c21` was tested, and the mutagenic call [1] was “active; positive”, the mutagenic call [2] was “inactive; negative” and the mutagenic call [3] was “inactive; negative”. For the same compound, the mutagenic call [4] was “inactive; negative”, the mutagenic call [5] was “inactive; negative” and the mutagenic call [6] was “inactive; negative”. The mutagenic call [7] was “inactive; negative”, the mutagenic call [8] was “active; positive” and the mutagenic call (Test System: AMES SALMONELLA TYPHIMURIUM, Strain/Indicator: TA1978, Metabolic Activation: NONE, Method: STANDARD PLATE) was “inactive; negative”.

In the case of `CC(Cl)CO` (stereo unspecified), the mutagenic call (Test System: AMES SALMONELLA TYPHIMURIUM, Strain/Indicator: TA1530, Metabolic Activation: NONE, Method: STANDARD PLATE) is reported as “active; positive” and the mutagenic call (Test System: AMES SALMONELLA TYPHIMURIUM, Strain/Indicator: TA1535, Metabolic Activation: RAT, LIVER, S-9, PCB, Method: STANDARD PLATE) is reported as “active; positive”.

In the case of `CC(=O)Nc1ccccc1`, the mutagenic call (Test System: AMES SALMONELLA TYPHIMURIUM, Strain/Indicator: TA97, Metabolic Activation: HAMSTER, LIVER, S-9, AROCLOR 1254 (10 OR 30%), Method: PREINCUBATION) is reported as “inactive; negative”, the mutagenic call (Test System: AMES SALMONELLA TYPHIMURIUM, Strain/Indicator: TA97, Metabolic Activation: NONE, Method: PREINCUBATION) is reported as “inactive; negative” and the mutagenic call (Test System: AMES SALMONELLA TYPHIMURIUM, Strain/Indicator: TA97, Metabolic Activation: RAT, LIVER, S-9, AROCLOR 1254 (10 OR 30%), Method: PREINCUBATION) is reported as “inactive; negative”. For the same compound, the mutagenic call (Test System: AMES SALMONELLA TYPHIMURIUM, Strain/Indicator: TA98, Metabolic Activation: GUINEA PIG, LIVER, S-9, PCB, Method: PREINCUBATION) was “inactive; negative”, the mutagenic call (Test System: AMES SALMONELLA TYPHIMURIUM, Strain/Indicator: TA98, Metabolic Activation: HAMSTER, LIVER, S-9, AROCLOR 1254 (10 OR 30%), Method: PREINCUBATION) was “inactive; negative” and the mutagenic call (Test System: AMES SALMONELLA TYPHIMURIUM, Strain/Indicator: TA98, Metabolic Activation: HAMSTER, LIVER, S-9, PCB, Method: PREINCUBATION) was “inactive; negative”. The mutagenic call (Test System: AMES SALMONELLA TYPHIMURIUM, Strain/Indicator: TA98, Metabolic Activation: MOUSE, LIVER, S-9, PCB, Method: PREINCUBATION) was “inactive; negative”, the mutagenic call (Test System: AMES SALMONELLA TYPHIMURIUM, Strain/Indicator: TA98, Metabolic Activation: NONE, Method: PREINCUBATION) was “inactive; negative” and the mutagenic call (Test System: AMES SALMONELLA TYPHIMURIUM, Strain/Indicator: TA98, Metabolic Activation: RAT, LIVER, S-9, AROCLOR 1254 (10 OR 30%), Method: PREINCUBATION) was “inactive; negative”. For the same compound, the mutagenic call (Test System: AMES SALMONELLA TYPHIMURIUM, Strain/Indicator: TA98, Metabolic Activation: RAT, LIVER, S-9, PCB, Method: PREINCUBATION) was “inactive; negative”, the mutagenic call (Test System: AMES SALMONELLA TYPHIMURIUM, Strain/Indicator: TA100, Metabolic Activation: GUINEA PIG, LIVER, S-9, PCB, Method: PREINCUBATION) was “inactive; negative” and the mutagenic call (Test System: AMES SALMONELLA TYPHIMURIUM, Strain/Indicator: TA100, Metabolic Activation: HAMSTER, LIVER, S-9, AROCLOR 1254 (10 OR 30%), Method: PREINCUBATION) was “inactive; negative”. The mutagenic call (Test System: AMES SALMONELLA TYPHIMURIUM, Strain/Indicator: TA100, Metabolic Activation: HAMSTER, LIVER, S-9, PCB, Method: PREINCUBATION) was “inactive; negative”, the mutagenic call (Test System: AMES SALMONELLA TYPHIMURIUM, Strain/Indicator: TA100, Metabolic Activation: MOUSE, LIVER, S-9, PCB, Method: PREINCUBATION) was “inactive; negative” and the mutagenic call [9] was “inactive; negative”. For the same compound, the mutagenic call (Test System: AMES SALMONELLA TYPHIMURIUM, Strain/Indicator: TA100, Metabolic Activation: RAT, LIVER, S-9, AROCLOR 1254 (10 OR 30%), Method: PREINCUBATION) was “inactive; negative”, the mutagenic call (Test System: AMES SALMONELLA TYPHIMURIUM, Strain/Indicator: TA100, Metabolic Activation: RAT, LIVER, S-9, PCB, Method: PREINCUBATION) was “inactive; negative” and the mutagenic call (Test System: AMES SALMONELLA TYPHIMURIUM, Strain/Indicator: TA1535, Metabolic Activation: HAMSTER, LIVER, S-9, AROCLOR 1254 (10 OR 30%), Method: PREINCUBATION) was “inactive; negative”. The mutagenic call (Test System: AMES SALMONELLA TYPHIMURIUM, Strain/Indicator: TA1535, Metabolic Activation: NONE, Method: PREINCUBATION) was “inactive; negative” and the mutagenic call (Test System: AMES SALMONELLA TYPHIMURIUM, Strain/Indicator: TA1535, Metabolic Activation: RAT, LIVER, S-9, AROCLOR 1254 (10 OR 30%), Method: PREINCUBATION) was “inactive; negative”.

`O=P1(NCCCl)OCCCN1CCCl` (stereo unspecified) was tested, and the mutagenic call (Test System: AMES SALMONELLA TYPHIMURIUM, Strain/Indicator: TA100, Metabolic Activation: NADPH, Method: PREINCUBATION) was “active; positive”, the mutagenic call [9] was “active; positive” and the mutagenic call (Test System: AMES SALMONELLA TYPHIMURIUM, Strain/Indicator: TA100, Metabolic Activation: RAT, LIVER, HEPATOCYTES, PHENOBARBITAL, Method: PREINCUBATION) was “inactive; negative”. The mutagenic call [3] was “active; positive”, the mutagenic call (Test System: AMES SALMONELLA TYPHIMURIUM, Strain/Indicator: TA100, Metabolic Activation: RAT, LIVER, S-9, PHENOBARBITAL, NADPH, Method: PREINCUBATION) was “active; positive” and the mutagenic call (Test System: AMES SALMONELLA TYPHIMURIUM, Strain/Indicator: TA100, Metabolic Activation: RAT, LIVER, S-9, PHENOBARBITAL, Method: PREINCUBATION) was “active; positive”. The mutagenic call (Test System: AMES SALMONELLA TYPHIMURIUM, Strain/Indicator: TA1535, Metabolic Activation: RAT, LIVER, HEPATOCYTES, PHENOBARBITAL, Method: PREINCUBATION) was “active; positive” and the mutagenic call [5] was “active; positive”.

With `CC1(c2ccc(-c3ccccc3)cc2)CO1` (stereo unspecified) the mutagenic call [9] was “active; positive”.
